One assay concerns the target Insulin receptor (Homo sapiens, UniProt P06213). Nature of the assay: Inhibition of insulin receptor autophosphorylation.
In assay [1] the target is Epidermal growth factor receptor (Homo sapiens, UniProt P00533). In words: Inhibition of Epidermal growth factor receptor autophosphorylation in A431 cell membranes.

Experimental findings from ChEMBL document CHEMBL1125830, “Phosphonate-containing inhibitors of tyrosine-specific protein kinases” (J Med Chem, 1991) are described below.

Epidermal growth factor receptor, sequence (P00533 whole entry): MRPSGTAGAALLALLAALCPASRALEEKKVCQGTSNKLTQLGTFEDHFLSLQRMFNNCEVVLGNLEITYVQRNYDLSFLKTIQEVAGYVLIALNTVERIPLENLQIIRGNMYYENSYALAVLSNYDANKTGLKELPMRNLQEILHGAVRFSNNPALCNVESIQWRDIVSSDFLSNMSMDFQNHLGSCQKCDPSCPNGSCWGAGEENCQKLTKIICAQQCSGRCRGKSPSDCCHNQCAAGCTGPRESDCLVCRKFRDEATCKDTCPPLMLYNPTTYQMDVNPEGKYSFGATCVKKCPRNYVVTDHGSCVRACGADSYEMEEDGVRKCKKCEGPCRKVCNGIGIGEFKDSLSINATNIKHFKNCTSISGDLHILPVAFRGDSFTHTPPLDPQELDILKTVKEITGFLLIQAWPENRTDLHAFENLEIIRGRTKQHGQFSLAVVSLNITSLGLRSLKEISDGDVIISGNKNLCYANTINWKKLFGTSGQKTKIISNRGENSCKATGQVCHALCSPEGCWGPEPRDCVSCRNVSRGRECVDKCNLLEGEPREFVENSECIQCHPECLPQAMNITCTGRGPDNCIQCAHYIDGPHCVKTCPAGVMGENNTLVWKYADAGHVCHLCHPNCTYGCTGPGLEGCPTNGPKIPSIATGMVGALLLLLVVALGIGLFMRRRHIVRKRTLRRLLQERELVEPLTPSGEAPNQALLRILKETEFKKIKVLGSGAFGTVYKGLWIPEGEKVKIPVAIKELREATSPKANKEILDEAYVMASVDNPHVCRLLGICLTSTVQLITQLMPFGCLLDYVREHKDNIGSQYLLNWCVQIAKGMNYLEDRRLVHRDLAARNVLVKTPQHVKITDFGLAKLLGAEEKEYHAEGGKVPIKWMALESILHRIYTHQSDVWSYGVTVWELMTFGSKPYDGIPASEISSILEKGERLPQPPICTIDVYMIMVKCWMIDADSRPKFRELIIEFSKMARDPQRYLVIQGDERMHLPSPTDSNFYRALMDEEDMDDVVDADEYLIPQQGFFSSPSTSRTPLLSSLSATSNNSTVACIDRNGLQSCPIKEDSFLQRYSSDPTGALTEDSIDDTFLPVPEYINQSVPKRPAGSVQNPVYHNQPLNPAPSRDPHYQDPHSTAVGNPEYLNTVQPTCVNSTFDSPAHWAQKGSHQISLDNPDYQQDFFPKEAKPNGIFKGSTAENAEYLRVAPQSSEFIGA
Insulin receptor, sequence (P06213 28-758 limits assumed): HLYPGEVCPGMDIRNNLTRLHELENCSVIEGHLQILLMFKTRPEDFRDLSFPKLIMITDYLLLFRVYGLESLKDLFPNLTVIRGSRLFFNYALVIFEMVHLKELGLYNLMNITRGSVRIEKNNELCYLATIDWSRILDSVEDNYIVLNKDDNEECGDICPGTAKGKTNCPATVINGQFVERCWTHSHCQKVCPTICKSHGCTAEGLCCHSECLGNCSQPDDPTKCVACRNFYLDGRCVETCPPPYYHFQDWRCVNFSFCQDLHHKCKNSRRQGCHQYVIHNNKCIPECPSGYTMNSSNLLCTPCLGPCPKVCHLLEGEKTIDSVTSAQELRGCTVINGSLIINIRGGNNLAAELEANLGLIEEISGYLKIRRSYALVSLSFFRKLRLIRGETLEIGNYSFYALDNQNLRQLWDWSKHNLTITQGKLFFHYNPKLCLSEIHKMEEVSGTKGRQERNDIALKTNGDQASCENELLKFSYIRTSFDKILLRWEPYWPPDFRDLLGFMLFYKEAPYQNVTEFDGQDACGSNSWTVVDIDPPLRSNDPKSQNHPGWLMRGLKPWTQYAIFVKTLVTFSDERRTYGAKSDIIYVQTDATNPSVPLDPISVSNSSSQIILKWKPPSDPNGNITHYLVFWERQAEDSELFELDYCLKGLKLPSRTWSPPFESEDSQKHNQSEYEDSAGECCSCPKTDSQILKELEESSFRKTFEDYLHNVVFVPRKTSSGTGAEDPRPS
Insulin receptor, sequence (P06213 763-1382 limits assumed): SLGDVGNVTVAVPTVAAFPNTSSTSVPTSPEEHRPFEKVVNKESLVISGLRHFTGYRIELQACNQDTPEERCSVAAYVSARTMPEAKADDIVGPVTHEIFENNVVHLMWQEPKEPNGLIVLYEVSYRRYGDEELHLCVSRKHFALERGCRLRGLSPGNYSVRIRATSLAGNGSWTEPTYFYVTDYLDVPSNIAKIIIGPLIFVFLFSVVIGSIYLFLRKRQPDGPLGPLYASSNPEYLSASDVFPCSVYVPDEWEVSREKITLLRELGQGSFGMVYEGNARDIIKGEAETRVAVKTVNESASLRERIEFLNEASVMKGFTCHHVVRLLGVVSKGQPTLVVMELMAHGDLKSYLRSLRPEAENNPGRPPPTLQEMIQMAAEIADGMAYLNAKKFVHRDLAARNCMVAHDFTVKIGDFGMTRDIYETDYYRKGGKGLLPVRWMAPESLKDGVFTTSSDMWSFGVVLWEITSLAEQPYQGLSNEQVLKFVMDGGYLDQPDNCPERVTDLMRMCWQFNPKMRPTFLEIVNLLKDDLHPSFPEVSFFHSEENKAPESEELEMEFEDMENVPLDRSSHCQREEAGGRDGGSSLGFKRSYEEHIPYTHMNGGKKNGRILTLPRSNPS

For orientation: IC50 means the concentration at which inhibition is half-maximal. Higher therefore signals a need for much substance. Take `O=P(O)(O)C(O)c1ccc2ccccc2c1` (configuration not stated): the IC50 turned out to be 200 µM against Insulin receptor and 250 µM in assay [1].
